From US20240043410A1, “SULPHAMOYL UREA DERIVATIVES CONTAINING ALKYL-OXACYCLOALKYL MOIETY AND USES THEREOF” (NodThera Limited, priority 2020, published 2024)

Legend:
[1] = test system: IL-1β release upon NLRP3 activation in peripheral blood mononuclear cells (PBMC); test: PBMC IC50 Determination Assay; format: cell-based; conditions: Homo sapiens; LPS-primed PBMC stimulated with ATP (5 mM) or nigericin (10 μM); IL-1β by ELISA (Protocol A) or HTRF (Protocol B); salts tested
Description: PBMC IC50 Determination Assay. The compounds of the present disclosure were tested for their inhibitory activity against IL-1β release upon NLRP3 activation in peripheral blood mononuclear cells (PBMC).
Protocol A. PBMC were isolated from buffy coats by density gradient centrifugation on Histopaque-1077 (Sigma, cat no. 10771). Isolated cells were seeded into the wells of a 96-well plate and incubated for 3 h with lipopolysaccharide (LPS). Following medium exchange, the compounds of the present disclosure were added (a single compound per well) and the cells were incubated for 30 min. Next, the cells were stimulated either with ATP (5 mM) or nigericin (10 μM) for 1 h and the cell culture media from the wells were collected for further analysis. The release of IL1-β into the media was determined by a quantitative detection of IL-1β in the media using an IL-1β enzyme-linked immunosorbent assay (ELISA) Ready-SET-Go!, eBioscience cat. No. 88-7261-88. Briefly, in a first step, high affinity binding plates (Corning, Costar 9018 or NUNC Maxisorp Cat No. 44-2404) were coated overnight at 4° C. with specific capture antibody included in the kit (anti-human IL-1β ref. 14-7018-68). Subsequently, plates were blocked with blocking buffer for 1 h at room temperature (rt) and after washing with a buffer (PBS with 0.05% Tween-20) incubated with protein standard and culture media. After 2 h of incubation at rt, plates were washed and incubated with biotinylated detection antibody included in the kit (anti-human IL-1β Biotin ref. 33-7110-68) for 1 h at rt. Plates were washed and incubated with HRP-streptavidin for 30 min at rt and washed again. The signal was developed after addition of 3,3′,5,5′-tetramethylbenzidine-peroxidase (TMB) until colour appeared and the reaction was stopped by 2 M H2SO4. A microplate spectrophotometer (BioTek) was used to detect signals with 450 nm. The detection range of IL-1β 3 ELISA was 2-150 ng/mL.
Protocol B. PBMC were isolated from buffy coats by density gradient centrifugation on Histopaque-1077 (Sigma, cat no. 10771). Isolated cells were seeded into the wells (280,000 cells/well) of a 96-well plate and incubated for 3 h with lipopolysaccharide (LPS, 1 μg/mL diluted 1000× from a 1 mg/mL stock solution). The compounds of the present disclosure were added (a single compound per well) and the cells were incubated for 30 min. Next, the cells were stimulated with ATP (5 mM final concentration diluted 20× from a 100 mM stock solution) for 1 h and the cell culture media from the wells were collected for further analysis. The release of IL-1β into the media was determined by quantitative detection of IL-1 in the media using HTRF®, CisBio cat. No. 62HIL1BPEH. Briefly, cell culture supernatant were dispensed directly into the assay plate containing antibodies labelled with the HTRF® donor and acceptor. A microplate spectrophotometer (BMG) was used to detect signals at 655 nm and 620 nm. The detection range of IL-1β HTRF® was […].

PAMPA permeability assay = format: in vitro ADME; conditions: 10 μM donor, PBS, 4 hours at room temperature, lecithin/dodecane membrane
Description: PAMPA Studies. The compounds of the present disclosure were tested in a PAMPA permeability assay to assess passive transcellular permeation.
Protocol. 0.2 mM working solution was prepared by diluting 10 mM stock solution with DMSO. 10 μM donor solution (5% DMSO) was prepared by diluting 20 μL of working solution with 380 μL PBS. 150 μL of 10 μM donor solutions to each well of the donor plate, whose PVDF membrane was precoated with 5 μL of 1% lecithin/dodecane mixture. Duplicates were prepared. 300 μL of PBS was added to each well of the PTFE acceptor plate. The donor plate and acceptor plate were combined and incubated for 4 hours at room temperature with shaking at 300 rpm. Preparation of TO sample: 20 μL donor solution was transferred to new well followed by the addition of 250 μL PBS (DF: 13.5), 130 μL ACN (containing internal standard) as TO sample. Preparation of acceptor sample: The plate was removed from incubator. 270 μL solution was transferred from each acceptor well and mixed with 130 μL ACN (containing internal standard) as acceptor sample. Preparation of donor sample: 20 μL solution was transferred from each donor well and mixed with 250 μL PBS (DF: 13.5), 130 μL ACN (containing internal standard) as donor sample. Acceptor samples and donor samples were all analysed by LC-MS/MS.
The measured PAMPA permeability values of compounds of the present disclosure are shown in Table B below (“$$$$” means >10 nm/“$$$” means ≥3 and <10 nm/s; “$$” means ≥1 and <3 nm/s; “$” means <1 nm/s).

[2] = Thermodynamic (equilibrium) solubility assay; format: physicochemical; conditions: aqueous buffer, thermodynamic from solid; 50 mM pH 7.4 phosphate buffer, 24 hours at room temperature
Description: Thermodynamic Solubility Studies. The compounds of the present disclosure were tested in an equilibrium solubility assay.
An appropriate amount of test and control compounds were weighed into lower chambers of Whatman Mini-UniPrep vials. To these were added 50 mM pH 7.4 phosphate buffer (450 μL) to get a super-saturated suspension. The samples were vortexed for at least 2 minutes. The Whatman Mini-UniPrep vials were shaken on a shaker for 24 hours at room temperature at 800 rpm. The vials were centrifuged for 20 minutes (eg. 4000 rpm). Samples were compressed to prepare filtrates for injection into HPLC system and the concentration calculated with a standard curve. […] As shown in the table, compounds of the present disclosure may display improved properties (e.g., over the compounds in the prior art), such as enhanced potency, solubility, membrane permeability and transporter efflux.

P-glycoprotein (P-gp) = target: T1, P-glycoprotein (P-gp) (Homo sapiens, UniProt P08183); test: P-gp MDCK-MDR1 permeability assay; format: in vitro ADME; conditions: efflux ratio, MDCK-MDR1 cells
T1 construct: expressed in transfected cells; host or cells: MDCK-MDR1 cells
T1 sequence (P08183 whole entry): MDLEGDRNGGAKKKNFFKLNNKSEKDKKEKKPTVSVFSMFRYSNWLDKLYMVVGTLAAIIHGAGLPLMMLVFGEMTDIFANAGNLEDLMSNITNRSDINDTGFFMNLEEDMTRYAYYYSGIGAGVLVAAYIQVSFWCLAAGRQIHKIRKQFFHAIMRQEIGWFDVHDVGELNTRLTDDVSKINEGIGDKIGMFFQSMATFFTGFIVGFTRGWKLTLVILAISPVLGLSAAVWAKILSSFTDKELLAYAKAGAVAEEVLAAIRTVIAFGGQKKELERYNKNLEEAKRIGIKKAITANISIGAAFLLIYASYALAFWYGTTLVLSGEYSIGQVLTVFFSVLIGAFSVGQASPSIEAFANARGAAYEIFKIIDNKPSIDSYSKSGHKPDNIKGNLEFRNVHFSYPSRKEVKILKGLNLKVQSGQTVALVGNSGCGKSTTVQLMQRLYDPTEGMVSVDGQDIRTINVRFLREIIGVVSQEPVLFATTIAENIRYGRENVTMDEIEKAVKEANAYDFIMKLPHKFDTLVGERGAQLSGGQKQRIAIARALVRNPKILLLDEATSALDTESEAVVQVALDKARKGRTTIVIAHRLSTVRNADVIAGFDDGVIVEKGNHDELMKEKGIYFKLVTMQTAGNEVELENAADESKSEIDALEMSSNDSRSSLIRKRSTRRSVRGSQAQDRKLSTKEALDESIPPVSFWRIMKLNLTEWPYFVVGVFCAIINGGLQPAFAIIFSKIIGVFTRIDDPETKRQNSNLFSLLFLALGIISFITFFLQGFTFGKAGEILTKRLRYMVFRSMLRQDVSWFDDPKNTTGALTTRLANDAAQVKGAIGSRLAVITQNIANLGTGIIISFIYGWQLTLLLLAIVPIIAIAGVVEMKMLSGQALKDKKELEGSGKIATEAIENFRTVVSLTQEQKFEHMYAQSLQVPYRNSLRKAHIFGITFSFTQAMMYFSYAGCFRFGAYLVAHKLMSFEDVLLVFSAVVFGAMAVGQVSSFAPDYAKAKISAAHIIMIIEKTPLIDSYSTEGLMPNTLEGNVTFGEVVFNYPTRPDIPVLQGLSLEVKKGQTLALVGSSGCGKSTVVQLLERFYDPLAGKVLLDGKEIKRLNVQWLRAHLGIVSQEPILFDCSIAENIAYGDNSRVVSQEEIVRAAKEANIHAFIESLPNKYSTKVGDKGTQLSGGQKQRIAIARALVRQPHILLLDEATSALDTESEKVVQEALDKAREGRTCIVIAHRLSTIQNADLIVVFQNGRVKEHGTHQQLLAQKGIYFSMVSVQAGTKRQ
Description: P-gp MDCK-MDR1 Studies. The compounds of the present disclosure were tested in a MDCK-MDR1 permeability assay to assess whether they are actively transported out of cells by the efflux protein, P-glycoprotein (P-gp).
Protocol. MDCK-MDR1 cells were used between passage numbers 6-30. Cells were seeded onto Millipore Multiscreen Transwell plates at 3.4×10^5 cells/cm^2. The cells were cultured in DMEM and media was changed on Day 3. On Day 4 the P-gp inhibition study was performed. Cell culture and assay incubations were carried out at 37° C. in an atmosphere of 5% CO2 with a relative humidity of 95%. On the day of the assay, the monolayers were prepared by rinsing both apical and basolateral surfaces twice with warmed (37° C.) transport buffer (Hanks Balanced Salt Solution [HBSS] containing 25 mM HEPES and 4.45 mM glucose, pH 7.4). Cells were then incubated with transport buffer containing test compound or positive control inhibitor (elacridar) in both apical and basolateral compartments for 30 minutes at 37° C. The dosing solutions were prepared by diluting digoxin and test compound where applicable to give a final digoxin concentration of 5 μM (final DMSO concentration of 1% v/v). The fluorescent integrity marker lucifer yellow was prepared in receiver solutions in vehicle or test compound-containing transport buffer. After pre-incubation, the transport buffer was removed from both apical and basolateral compartments and replaced with the appropriate dosing or receiver solution.
For assessment of B-A permeability, transport buffer was removed from the basolateral companion plate and replaced with dosing solution. Fresh transport buffer containing lucifer yellow and test compound where applicable (final DMSO concentration 1% v/v) was added to the apical compartment insert, which was then placed into the companion plate. After a 90-minute incubation the apical compartment inserts and the companion plates were separated and compartments sampled for analysis. Seven concentrations of test compound (up to 100 μM) were assessed in addition to a vehicle control (0 μM). A triplicate determination of each concentration was performed. The positive control inhibitor was evaluated in parallel. [^3H]-digoxin was quantified by liquid scintillation counting to give disintegrations per minute (dpm). The integrity of the monolayer throughout the experiment was checked by monitoring lucifer yellow permeation using fluorimetric analysis.
The efflux ratio (ER) values of compounds of the present disclosure are shown in Table B below (“****” means <3; “***” 3≥ and <10; “**” means ≥10 and <30; “*” means ≥30).

PAMPA Pe (PAMPA permeability assay) | solubility thermodynamic at 24 h [2] [µg/mL] | MDCK-MDR1 ER (P-glycoprotein (P-gp)) | SMILES | IC50 [1] [nM]
$$$ (“$$$” means ≥3 and <10 nm/s) | 3000 to 10000 | ** (“**” means ≥10 and <30) | Cn1cc(N(CC2CCCCO2)S(=O)(=O)NC(=O)Nc2c3c(cc4c2CC4)CC3)cn1 (stereo in doubt) [Compound 7A, Sodium [(1-methyl-1H-pyrazol-4-yl)({[(2S)-oxan-2-yl]methyl})sulfamoyl]-({tricyclo[6.2.0.0^3,6]deca-1,3(6),7-trien-2-yl}carbamoyl)azanide] | < 100
$$$ (“$$$” means ≥3 and <10 nm/s) | 3000 to 10000 | * (“*” means ≥30) | Cn1cc(N(CC2CCCCO2)S(=O)(=O)NC(=O)Nc2c3c(cc4c2CC4)CC3)cn1 (stereo in doubt) [Compound 7B, Sodium [(1-methyl-1H-pyrazol-4-yl)({[(2R)-oxan-2-yl]methyl})sulfamoyl]-({tricyclo[6.2.0.0^3,6]deca-1,3(6),7-trien-2-yl}carbamoyl)azanide)] | < 100
 |  | * (“*” means ≥30) | Cn1cc(N(C[C@@H]2CCCO2)S(=O)(=O)NC(=O)Nc2c3c(cc4c2CC4)CC3)cn1 [Compound 3A, Sodium [(1-methyl-1H-pyrazol-4-yl)({[(2S)-oxolan-2-yl]methyl})sulfamoyl]-({tricyclo[6.2.0.0^3,6]deca-1,3(6),7-trien-2-yl}carbamoyl)azanide] | < 100
 |  | * (“*” means ≥30) | Cn1cc(N(C[C@H]2CCCO2)S(=O)(=O)NC(=O)Nc2c3c(cc4c2CC4)CC3)cn1 [Compound 3B, Sodium [(1-methyl-1H-pyrazol-4-yl)({[(2R)-oxolan-2-yl]methyl})sulfamoyl]-({tricyclo[6.2.0.0^3,6]deca-1,3(6),7-trien-2-yl}carbamoyl)azanide] | < 100
